Results: patent US7056734B1, “Differentiation of non-insulin producing cells into insulin producing cells by GLP-1 or exendin-4 and uses thereof” (The United States of America as represented by the …, priority 1998, dated 2006)

Key:
[1] = Protocol: The rats were implanted with an Alzet micro-osmotic pump (Alza Corp., Palo Alto, Calif.) in the interscapular region for 48 hrs. […] Control animals received normal saline in their pumps and received their infusion for the same length of time.
Assays. Plasma glucose was measured by the glucose oxidase method (Egan et al., 1991). […] The amount of cellular proteins was measured using the Bradford method (Bio-Rad Richmond, Calif.) using bovine γ-globulin as standard.

[2] = system: Hexokinase I, II and III mRNA; assay: Slot-blot quantitation of hexokinase I, II and III mRNA in pancreata and islets; assay type: in vivo, rat; details: whole pancreata and islets
Protocol: Whole pancreata of rats that had been subjected to 48 hrs infusion with GLP-1 or saline were used to extract total RNA. After an overnight fast, animals were sacrificed, pancreata were removed and frozen in liquid nitrogen as quickly as possible. RNA was extracted by homogenization in guanidinium isothiocyanate, followed by ultracentrifugation on a 5.7 M cesium chloride cushion (Glisin et al., 1974; Chigwin et al., 1979). Poly-A RNA was then prepared from total RNA by affinity chromatography using oligo (dT) columns (Biolabs INC, Beverly, Mass.). RNA was quantified by spectrophotometric analysis at […]. Slot-blot analysis using poly-A RNA was used for quantitation of mRNA levels of glucokinase, which is the main glucose sensor of the beta cell (Matschinsky, 1990), the three hexokinases, GLUT2, the major glucose transporter of the beta cell (Mueckler, 1990), and insulin. Four micrograms of poly-A RNA were diluted in 50 μl TE buffer (Tris-HCL 10 mM, EDTA 1 mM, pH 7.4), 20 μl of 37% formaldehyde and 20 μl of 10× SSC. Samples were incubated at 60° C. for 15 min and then diluted with 1 ml of ice-cold 10× SSC (1×SCC=0.15 M NaCl+0.015 sodium citrate). […]
RNA isolation and quantitation of mRNAs in islets of Langerhans. […] Slot-Blot analysis was carried out to quantitate mRNA levels of the hexokinases, GLUT2, and insulin.

[3] = system: diabetic mice (C57BLKS/J-Lepr^db/Lepr^db); assay: Daily ip exendin-4 in diabetic mice; assay type: in vivo, mouse
From the text: Animals. Four month old Wistar rats from the Wistar colony in the NIA (Baltimore, Md.) were used for the acute experiments of the effects of exendin-4 and GLP-1 (see Example 1). They had been maintained on standard lab chow and fed ad libitum. For the long-term experiments, diabetic mice (C57BLKS/J-Lepr^db/Lepr^db) lacking the leptin receptor, and their non-diabetic littermates were purchased at 4 weeks of age from Jackson Laboratories (Bar Harbor, Me.). They were housed two per cage and also were fed ad libitum. The same mice were caged together for the duration of the study. Wistar rats are caged on wire while the bedding for the mice was a paper based product, “Carefresh” (Absorption Co., Bellingham, Wash.).
Subsequently, whole blood glucose levels, taken from a retro-orbital sinus, were determined in the mice using a Glucometer Elite (Bayer). This regimen was continued for 12–13 weeks. […] Animals were weighed weekly. After one week of the regimen blood samples were again taken from a retro-orbital sinus for determination of insulin and glucose levels. At the end of the regimen, fasting blood samples were obtained for glucose and insulin levels and whole blood containing EDTA was assayed for hemoglobin A1c (Hb A1c) on the same day from the four groups.
Assays. Plasma glucose was measured by the glucose oxidase method (Wang et al., 1997). Insulin was measured by RIA as previously described (See Example 1). Hb A1c was assayed using a BIO-RAD (Herculas Calif.) DiaSTAT machine which uses low pressure cation exchange chromatography in conjunction with gradient elution to separate hemoglobin subtypes and variants from hemolyzed blood. The separated hemoglobin fractions were monitored by means of absorption of light at 415 nm.

[4] = Biological half-life; assay type: in vivo; details: compared with several minutes for GLP-1

Row | Compound | plasma GLP-1 before commencement of glucose tolerance testing ([1]; 120 min after removal of pumps) | plasma GLP-1 levels relative to fasting levels ([1]; during infusion, fasting levels 10–20 pmol/l) | Hexokinase I, II and III mRNA levels [2] | blood sugar lowering at lower concentration compared with larger amount ([3]; 1 nmol/kg ip for one week, diabetic mice) | weight of the animal for the first 3–4 days of injection ([3]; back to same as NaCl-treated by the seventh day) | cage bedding 24 hours after changing vs NaCl-treated diabetic animals (urination) ([3]; diabetic mice, 9 weeks treatment) | fasting glucose levels ([3]; diabetic mice, 12–13 weeks, NaCl 517±59, p<0.005) [mg/dL] | fasting insulin levels ([3]; diabetic mice, 12–13 weeks, NaCl 707.2±169.7, p<0.02) | Hb A1c ([3]; diabetic mice, daily ip for 12–13 weeks, NaCl-treated 8.8%, p<0.0001) [%] | fasting glucose level after one week of treatment ([3]; diabetic mice, daily ip, NaCl-treated 238±51, p<0.002) [mg/dL] | deaths just after receiving exendin-4 ([3]; diabetic mice, day fourteen) | fasting insulin levels after one week vs NaCl ([3]; diabetic mice, p<0.002) | body weight at 13–14 weeks of treatment ([3]; diabetic mice, NaCl-treated 38.7 g) [g] | effects of the daily injections on behavior ([3]; long-term daily ip) | half-life [4]
1 | CC[C@H](C)[C@H](NC(=O)[C@H](Cc1ccccc1)NC(=O)[C@H](CCC(=O)O)NC(=O)[C@H](CCCCN)NC(=O)[C@H](C)NC(=O)[C@H](C)NC(=O)[C@H](CCC(N)=O)NC(=O)CNC(=O)[C@H](CCC(=O)O)NC(=O)[C@H](CC(C)C)NC(=O)[C@H](Cc1ccc(O)cc1)NC(=O)[C@H](CO)NC(=O)[C@H](CO)NC(=O)[C@@H](NC(=O)[C@H](CC(=O)O)NC(=O)[C@H](CO)NC(=O)[C@@H](NC(=O)[C@H](Cc1ccccc1)NC(=O)[C@@H](NC(=O)CNC(=O)[C@H](CCC(=O)O)NC(=O)[C@H](C)NC(=O)[C@@H](N)Cc1c[nH]cn1)[C@@H](C)O)[C@@H](C)O)C(C)C)C(=O)N[C@@H](C)C(=O)N[C@@H](Cc1c[nH]c2ccccc12)C(=O)N[C@@H](CC(C)C)C(=O)N[C@H](C(=O)N[C@@H](CCCCN)C(=O)NCC(=O)N[C@@H](CCCNC(=N)N)C(N)=O)C(C)C [GLP-1] | below the level of detectability | approximately 6 times | did not appear to be altered | – | – | – | – | – | – | – | – | – | – | – | –
2 | exendin-4 | – | – | – | just as effective | drops | obviously drier | 278.7 ± 30.0 | 4,600±1,114 pmol/l | 4.7 | 90 ± 11 | one of the diabetic mice died | higher | 46.7 | no untoward effects | on the order of hours
